{"source": "paper PMC10147046", "about": "“Assessment of Various Food Proteins as Structural Materials for Delivery of Hydrophobic Polyphenols Using a Novel Co-Precipitation Method” (Molecules, 2023)", "key": {"[1]": {"conditions": "source not given; cited from earlier work"}, "[2]": {"test": "Dispersibility in water: particle size distribution over time (Malvern Mastersizer 2000)", "assay_type": "physicochemical", "conditions": "for Particle size reached over time, WPI co-precipitates: over 60 min; for Particle size after treatment in the absence of trehalose: polyphenol precipitate without protein and without trehalose; for Size of additional significant particle population after treatment: distribution at least bi-modal; for Dispersibility of untreated polyphenol: untreated powder, phosphate buffer pH 7.0, over 60 min", "protocol": "The particle size distribution of untreated (control) polyphenols vs. the polyphenols co-precipitated with NaCas, SPI, and WPI after dispersion in phosphate buffer (pH 7.0) is presented in Figure 4. As stated in Section 3.6, in the case of the current research, we measured dispersibility based on the decrease in the size of particles dispersed in the aqueous medium over time.\nThe dispersibility of the lyophilized powders and the untreated samples was measured according to the method from Ji et al.. For this purpose, we used a Malvern Mastersizer 2000 (Malvern Instruments Ltd., Worcestershire, UK), which was equipped with a 4 mW He–Ne laser operating apparatus. To start with, about 30 mg of each powder was added to the dispersion unit containing phosphate buffer (10 mM NaH2PO4, pH 7.0), and this mixture was stirred (2000 rpm) for 60 min. The particle size distribution obscuration values of each sample were read at 2 min intervals and a wavelength of 632.8 nm. To avoid artifacts (large lumps) from the initial dispersion, the Time 0 min measurement was removed, and the data from 2 to 60 min were collected. A separate normalization was applied to the obscuration indices across the dispersion period for each sample by dividing each index by the maximum index. Finally, the volume distribution data were multiplied by the normalized obscuration index at each time point."}, "[3]": {"test": "Solubility of the powders in water (phosphate buffer), HPLC quantification", "assay_type": "physicochemical", "conditions": "for solubility at 24 h: aqueous buffer, thermodynamic from solid; for Increase in solubility of co-precipitate compared to intrinsic (untreated) solubility: polyphenol co-precipitated with protein and trehalose vs untreated, phosphate buffer pH 7.0", "protocol": "To measure the amount of the polyphenol entrapped inside the NaCas, SPI, and WPI precipitates (entrapment efficiency), the concentration of each polyphenol in the supernatants was determined by high-performance liquid chromatography (HPLC) following different methods (depending on the polyphenol). The HPLC instrument was equipped with a UV/visible diode array detector (Agilent Technologies, 1200 Series, Santa Clara, CA, USA). The column was a reverse-phase PrevailTM C18 with dimensions of 4.6 cm × 150 mm and 5 µm particle size (Grace Alltech, Columbia, MD, USA). The composition and conditions of the mobile phase varied based on the method used for the quantification of each polyphenol. […] The sample injection volume for all cases was 20 µL. Different polyphenols were detected at different wavelengths and different retention times; e.g., naringenin and rutin were detected at 10.15 and 4.8 min, respectively. For the calibration of the HPLC column and quantification of each polyphenol in the samples, standard solutions of various concentrations of pure polyphenols (94 to 98%) in the mobile phase were used. […] Thermo Scientific, Waltham, MA, USA) before injecting them into the HPLC column. […] The dispersibility of the lyophilized powders and the untreated samples was measured according to the method from Ji et al.. For this purpose, we used a Malvern Mastersizer 2000 (Malvern Instruments Ltd., Worcestershire, UK), which was equipped with a 4 mW He–Ne laser operating apparatus. […] To avoid artifacts (large lumps) from the initial dispersion, the Time 0 min measurement was removed, and the data from 2 to 60 min were collected. A separate normalization was applied to the obscuration indices across the dispersion period for each sample by dividing each index by the maximum index. Finally, the volume distribution data were multiplied by the normalized obscuration index at each time point."}, "[4]": {"set-up": "method as in PMID 35056844", "conditions": "rutin dissolved in solution maintained at pH 11.0 for 30 min; cited from earlier work"}, "[5]": {"set-up": "method as in PMID 30724197", "conditions": "cited from earlier work"}, "[6]": {"conditions": "reference compounds of Table 1; one cell merged over all four solubility columns; no source or measurement printed; cited from earlier work"}, "[7]": {"conditions": "polyphenol precipitate without protein, absence of trehalose"}, "[8]": {"conditions": "untreated (commercial) polyphenol, phosphate buffer pH 7.0, 25 °C"}}, "data": [{"compound": "O=C1C[C@@H](c2ccc(O)cc2)Oc2cc(O)cc(O)c21", "note": "[Naringenin, (S)-naringenin]", "values": [{"measurement": "Solubility in ethanol", "setting": "[1]", "result": "~1000", "unit": "µg/mL"}, {"measurement": "Particle size reached over time, WPI co-precipitates", "setting": "[2]", "result": "less than 1 μm"}, {"measurement": "Particle size after treatment in the absence of trehalose", "setting": "[2]", "result": "~ 6 μm"}, {"measurement": "Size of additional significant particle population after treatment", "setting": "[2]; [7]", "result": "~0.1", "unit": "µm"}, {"measurement": "Dispersibility of untreated polyphenol", "setting": "[2]", "result": "None of the untreated forms of rutin, naringenin, hesperidin, and curcumin (Figure 4) showed any significant dispersibility over 60 min"}, {"measurement": "solubility at 24 h", "setting": "[3]; [8]", "result": 2, "unit": "µg/mL"}]}, {"compound": "C[C@@H]1O[C@@H](OC[C@H]2O[C@@H](Oc3c(-c4ccc(O)c(O)c4)oc4cc(O)cc(O)c4c3=O)[C@H](O)[C@@H](O)[C@@H]2O)[C@H](O)[C@H](O)[C@H]1O", "note": "[Rutin]", "values": [{"measurement": "Solubility in ethanol", "setting": "[1]", "result": "about 4 mg/mL"}, {"measurement": "Degradation", "setting": "[4]", "result": "approximately 10%"}, {"measurement": "Particle size reached over time, WPI co-precipitates", "setting": "[2]", "result": "less than 1 μm"}, {"measurement": "Size of smaller particles favoured over time, NaCas co-precipitate", "setting": "[2]; co-precipitate with NaCas, redistribution of particle size over time", "result": 0.1, "unit": "μm"}, {"measurement": "Size of additional significant particle population after treatment", "setting": "[2]; [7]", "result": "~0.1", "unit": "µm"}, {"measurement": "Effect of treatment (no protein) on dispersibility", "setting": "[2]; treated polyphenol precipitates with or without trehalose", "result": "Treatment improved the dispersibility only of rutin"}, {"measurement": "Dispersibility of untreated polyphenol", "setting": "[2]", "result": "None of the untreated forms of rutin, naringenin, hesperidin, and curcumin (Figure 4) showed any significant dispersibility over 60 min"}, {"measurement": "solubility at 24 h", "setting": "[3]; [8]", "result": 110, "unit": "µg/mL"}]}, {"compound": "Curcumin", "values": [{"measurement": "Solubility in ethanol", "setting": "[1]", "result": "~10000", "unit": "µg/mL"}, {"measurement": "Size of minor particle population after treatment", "setting": "[2]; [7]", "result": "~ 160 μm"}, {"measurement": "Dispersibility of untreated polyphenol", "setting": "[2]", "result": "None of the untreated forms of rutin, naringenin, hesperidin, and curcumin (Figure 4) showed any significant dispersibility over 60 min"}, {"measurement": "Increase in solubility of co-precipitate compared to intrinsic (untreated) solubility", "setting": "[3]", "result": "~10", "unit": "fold"}, {"measurement": "Solubility (Untreated)", "setting": "[3]; [8]", "result": 8, "unit": "µg/mL"}]}, {"compound": "COc1ccc([C@@H]2CC(=O)c3c(O)cc(O[C@@H]4O[C@H](CO[C@@H]5O[C@@H](C)[C@H](O)[C@@H](O)[C@H]5O)[C@@H](O)[C@H](O)[C@H]4O)cc3O2)cc1O", "note": "[Hesperidin]", "values": [{"measurement": "Solubility in ethanol", "setting": "[1]", "result": "~1000", "unit": "µg/mL"}, {"measurement": "Particle size after treatment in the absence of trehalose", "setting": "[2]", "result": 30, "unit": "μm"}, {"measurement": "Particle size, untreated polyphenol", "setting": "[2]; untreated powder dispersed in phosphate buffer", "result": "~ 60 μm"}, {"measurement": "Dispersibility of untreated polyphenol", "setting": "[2]", "result": "None of the untreated forms of rutin, naringenin, hesperidin, and curcumin (Figure 4) showed any significant dispersibility over 60 min"}, {"measurement": "solubility at 24 h", "setting": "[3]; [8]", "result": 2, "unit": "µg/mL"}]}, {"compound": "Oc1cc(O)c2c(c1)O[C@H](c1ccc(O)c(O)c1)[C@@H](O)C2", "note": "[Catechin, (+)-catechin]", "values": [{"measurement": "Solubility in ethanol", "setting": "[1]", "result": "~100000", "unit": "µg/mL"}, {"measurement": "Size of additional significant particle population after treatment", "setting": "[2]; [7]", "result": "~0.1", "unit": "µm"}, {"measurement": "Dispersibility of untreated polyphenol", "setting": "[2]", "result": "showed some dispersibility"}, {"measurement": "solubility at 24 h", "setting": "[3]; [8]", "result": 1.5, "unit": "µg/mL"}, {"measurement": "Increase in solubility of co-precipitate compared to intrinsic (untreated) solubility", "setting": "[3]", "result": "~10", "unit": "fold"}]}, {"compound": "O=c1c(-c2ccc(O)cc2)coc2cc(O)ccc12", "note": "[daidzein]", "values": [{"measurement": "Enhancement of daidzein solubility", "setting": "[5]; WPI nanoparticles formed in the presence of daidzein", "result": "at least 2 fold"}, {"measurement": "Stability", "setting": "[5]; WPI-daidzein nanoparticles, 4 °C", "result": "stable at 4 °C for at least two months"}]}, {"compound": "Oc1ccc(-c2ccc(O)cc2O)c(O)c1", "note": "[[1,1′-Biphenyl]-2,2′,4,4′-tetrol]", "values": [{"measurement": "Solubility (reference compounds, in words)", "setting": "[6]", "result": "low?"}]}]}
